US5498632A, “Esters of acyl carnitines with long-chain aliphatic alcohols and pharmaceutical compositions containing same having antibacterial activity” (Sigma-Tau Industrie Farmaceutiche Riunite S.p.A., priority 1992, dated 1996)

Experiments:
peritoneal macrophage = experiment: Test 4: peritoneal macrophage number in mice; assay type: in vivo, mouse (male B6 D2 F1); conditions: 100 mg/kg/day for 5 consecutive days, oral
Protocol: Evaluation of the effect of repeated oral administrations of ST 722 on the peritoneal macrophage number in mice.
Male B6 D2 F1 mice (C. River) aged 10 weeks (6 animals each group) were orally treated with the substance ST 722 at the dose of 100 mg/kg/day for 5 consecutive days. Twenty-four hours after the last administration, the animals were sacrificed, the peritoneal exudate cells (PEC) collected and the macrophage number determined.

mice = experiment: Assessment of behaviour and mortality in mice (Irwin's method); design: species or system mouse (male Crl:(CD-1)(ICR)BR); conditions: mouse, in vivo, po
Protocol: (§1) The assessment of normal behaviour in mice was carried out following S. Irwin's method (Psychopharmacologia, 13, 222 [1968]). This method allows alterations in some behavioural, neurophysiologic and neurovegetative parameters to be detected, which are directly observable by the researcher. The study was conducted using male Crl:(CD-1)(ICR)BR mice (Charles River--Italy) weighing 22-25 g, following oral administration of the compounds suspended in carboxymethylcellulose (0.5% by weight in H2 O) to groups of 4 animals/dose.
(§2) The animals were continously kept under observation for five hours following treatment and twice a day in the subsequent five days. Mortality was also observed during the overall test period.

[1] = as above; design: species or system mouse (male Crl:(CD-1)(ICR)BR); conditions: mouse, in vivo; oral, dose 1000, 4 animals/dose
Protocol: as §1, §2

Gram+ bacterial strains = experiment: Mean MIC in broth and resistant strain number, Gram+ strains; assay type: cell-based; conditions: 18 h, versus susceptible strains
Protocol: (§3) Evaluation of the Minimal Inhibitory Concentration (MIC) in broth of 15 new substances for Gram+ bacterial strains.
(§4) The following strains were used: Staphylococcus aureus (4); Streptococcus faecalis (8); Bacillus pumilus (1); Bacillus subtilis (1).
(§5) MICs were determined by a standard microdilution test, using serial two-fold dilutions of the substances in Mueller-Hinton broth.
(§6) The inoculum was prepared from an overnight culture in Mueller-Hinton broth matching the 0.5 Mc Farland (turbidity) standard (BRAY W. E., Clinical Laboratory Methods, 5th Ed. C. V. MOSBY, St. Louis, Mo. 1957), and was adjusted to a final concentration of 5.0×10^4 colony-forming units/ml.
(§7) Equal volumes (0.1 ml) of both bacterial suspensions and substance solutions were distributed in microtiter plates (Falcon, 96 wells, round bottom), and then placed in a humidified incubator (37° C.) for 18 hours.
(§8) The results, in terms of MIC values, resistant strain number and mean MIC values versus susceptible strains, are illustrated in Tables 1-6.

[2] = system: Streptococcus faecalis (R 2); experiment: MIC in broth, Gram+ strains; assay type: cell-based; conditions: Enterococcus faecalis; S. faecalis (R 2), Mueller-Hinton broth, 37° C., 18 hours; read-out: Minimal Inhibitory Concentration (MIC)
Protocol: as §3, §4, §5, §6, §7, §8

[3] = system: Streptococcus faecalis (519); experiment: MIC in broth, Gram+ strains; assay type: cell-based; conditions: Enterococcus faecalis; S. faecalis (519), Mueller-Hinton broth, 37° C., 18 hours; read-out: Minimal Inhibitory Concentration (MIC)
Protocol: as §3, §4, §5, §6, §7, §8

[4] = system: Staphylococcus aureus (303); experiment: MIC in broth, Gram+ strains; assay type: cell-based; conditions: S. aureus (303), Mueller-Hinton broth, 37° C., 18 hours, read-out: Minimal Inhibitory Concentration (MIC)
Protocol: as §3, §4, §5, §6, §7, §8

[5] = system: Staphylococcus aureus (LC1); experiment: MIC in broth, Gram+ strains; assay type: cell-based; conditions: S. aureus (LC1), Mueller-Hinton broth, 37° C., 18 hours, read-out: Minimal Inhibitory Concentration (MIC)
Protocol: as §3, §4, §5, §6, §7, §8

[6] = system: Streptococcus faecalis (501); experiment: MIC in broth, Gram+ strains; assay type: cell-based; conditions: Enterococcus faecalis; S. faecalis (501), Mueller-Hinton broth, 37° C., 18 hours; read-out: Minimal Inhibitory Concentration (MIC)
Protocol: as §3, §4, §5, §6, §7, §8

[7] = system: Streptococcus faecalis (505); experiment: MIC in broth, Gram+ strains; assay type: cell-based; conditions: Enterococcus faecalis; S. faecalis (505), Mueller-Hinton broth, 37° C., 18 hours; read-out: Minimal Inhibitory Concentration (MIC)
Protocol: as §3, §4, §5, §6, §7, §8

[8] = system: Staphylococcus aureus (306 MR); experiment: MIC in broth, Gram+ strains; assay type: cell-based; conditions: S. aureus (306 MR), Mueller-Hinton broth, 37° C., 18 hours, read-out: Minimal Inhibitory Concentration (MIC)
Protocol: as §3, §4, §5, §6, §7, §8

[9] = system: Streptococcus faecalis (UM); experiment: MIC in broth, Gram+ strains; assay type: cell-based; conditions: Enterococcus faecalis; S. faecalis (UM), Mueller-Hinton broth, 37° C., 18 hours; read-out: Minimal Inhibitory Concentration (MIC)
Protocol: as §3, §4, §5, §6, §7, §8

[10] = system: Streptococcus faecalis (509); experiment: MIC in broth, Gram+ strains; assay type: cell-based; conditions: Enterococcus faecalis; S. faecalis (509), Mueller-Hinton broth, 37° C., 18 hours; read-out: Minimal Inhibitory Concentration (MIC)
Protocol: as §3, §4, §5, §6, §7, §8

[11] = system: Staphylococcus aureus (ATCC 14154); experiment: MIC in broth, Gram+ strains; assay type: cell-based; conditions: ATCC14154, S. aureus (ATCC 14154), Mueller-Hinton broth, 37° C., 18 hours, read-out: Minimal Inhibitory Concentration (MIC)
Protocol: as §3, §4, §5, §6, §7, §8

[12] = system: Bacillus subtilis (ATCC 6051); experiment: MIC in broth, Gram+ strains; assay type: cell-based; conditions: ATCC6051, B. subtilis (ATCC 6051), Mueller-Hinton broth, 37° C., 18 hours, read-out: Minimal Inhibitory Concentration (MIC)
Protocol: as §3, §4, §5, §6, §7, §8

[13] = system: Streptococcus faecalis (516); experiment: MIC in broth, Gram+ strains; assay type: cell-based; conditions: Enterococcus faecalis; S. faecalis (516), Mueller-Hinton broth, 37° C., 18 hours; read-out: Minimal Inhibitory Concentration (MIC)
Protocol: as §3, §4, §5, §6, §7, §8

[14] = system: Bacillus pumilus (CN 607); experiment: MIC in broth, Gram+ strains; assay type: cell-based; conditions: B. pumilus (CN 607), Mueller-Hinton broth, 37° C., 18 hours, read-out: Minimal Inhibitory Concentration (MIC)
Protocol: as §3, §4, §5, §6, §7, §8

[15] = system: Streptococcus faecalis (518); experiment: MIC in broth, Gram+ strains; assay type: cell-based; conditions: Enterococcus faecalis; S. faecalis (518), Mueller-Hinton broth, 37° C., 18 hours; read-out: Minimal Inhibitory Concentration (MIC)
Protocol: as §3, §4, §5, §6, §7, §8

**Q.** Which Body weight (peritoneal macrophage) does the source give for `CCCCCCCCCCCOC(=O)CC(C[N+](C)(C)C)OC(=O)CC(C)C` [ST 722, Isovaleryl-L-Carnitine Undecyl Ester Chloride] here?
**A.** 28.13 ± 1.30 g

**Q.** What about the “increase in the peritoneal macrophages number” value (peritoneal macrophage) of the same molecule?
**A.** about 60%

**Q.** What about the “toxic effect in PEC macrophage population” value (peritoneal macrophage) of the same molecule?
**A.** No toxic effect has been observed

**Q.** What about the “PEC M.phi.” value (peritoneal macrophage; 6 pooled samples) of the same molecule?
**A.** 63%

**Q.** What about the Symptoms (mice) of the same molecule?
**A.** salivation, diarrhoea

**Q.** And the mortality at 120 h [1]?
**A.** 0%

**Q.** What about the MIC (Gram+ bacterial strains) of the same molecule?
**A.** 3.12 µg/mL

**Q.** And the MIC [2]?
**A.** 3.12 µg/mL

**Q.** What about the MIC [3] of the same molecule?
**A.** 3.12 µg/mL

**Q.** And the MIC [4]?
**A.** 6.25 µg/mL

**Q.** And the MIC [5]?
**A.** 1.56 µg/mL

**Q.** What about the MIC [6] of the same molecule?
**A.** 3.12 µg/mL

**Q.** What about the MIC [7] of the same molecule?
**A.** 3.12 µg/mL

**Q.** And the MIC [8]?
**A.** 6.25 µg/mL

**Q.** What about the MIC [9] of the same molecule?
**A.** 1.56 µg/mL

**Q.** What about the MIC [10] of the same molecule?
**A.** 3.12 µg/mL

**Q.** What about the MIC [11] of the same molecule?
**A.** 3.12 µg/mL

**Q.** And the MIC [12]?
**A.** 3.12 µg/mL

**Q.** And the MIC [13]?
**A.** 1.56 µg/mL

**Q.** What about the MIC [14] of the same molecule?
**A.** 1.56 µg/mL

**Q.** What about the MIC [15] of the same molecule?
**A.** 3.12 µg/mL
